Reference: publication PMC6272970 (Molecules, 2016)
≈ marks a conversion by molar mass, not a printed value.

Assays:
[1] = design: method as in PMID 25030991; settings: rat plasma; 2.5 mg/kg sublingual vein administration; cited from earlier work
[2] = design: method as in PMID 11151743; settings: healthy volunteers, various dose levels; quercetin glucuronides and/or sulfates measured; cited from earlier work
[3] = Solubility trials of rutin in water, ethanol, methanol and NADES, quantified by HPLC-DAD; assay type: physicochemical; settings: 22 °C
Procedure: Samples were stirred on a magnetic stirrer (Stuart, Bibby Scientific Ltd., Stone, Staffordshire, UK) for one hour at room temperature and centrifuged for 21 min at 13,000 rpm with Eppendorf 5415 R centrifuge The time of one-hour stirring was chosen because it was sufficient for all the prepared mixtures to reach maximum concentration of rutin. […] Calibration curve was obtained injecting standard solution at different concentrations namely (50, 25, 10, 5 and 1 μg/mL) Calibration curve was as follows y = 17.832 x + 9.7822 (R^2 was 0.9998). Limit of Quantification was 1 μg/mL. For HPLC-DAD a series 1260 HPLC instrument (Agilent, Cernusco Sul Naviglio (MI), Italy) equipped with a quaternary pump, a diode-array detector, an auto sampler and a column oven compartment was used. Analyses were performed on Eclipse XDB C8 column (5 μm, 4.6 mm × 150 mm, Agilent). The mobile phase was (A) water-formic acid (99.9:0.1, v/v) and (B) acetonitrile. A gradient program was used as follows: [0 → 10[…] (60:40) 10 → 11[…] (0:100) 11 → 12[…] (0:100) 12 → 13[…] (90:10) 13 → 14[…] (90:10)]. The mobile phase flow rate was 1.2 mL/min and the injection volume was 10 μL. The chromatogram was recorded at 350 nm and spectral data for all peaks were obtained in the range of 190-400 nm. The retention time of rutin in the analysis conditions was 3.8 min.

C[C@@H]1O[C@@H](OC[C@H]2O[C@@H](Oc3c(-c4ccc(O)c(O)c4)oc4cc(O)cc(O)c4c3=O)[C@H](O)[C@@H](O)[C@@H]2O)[C@H](O)[C@H](O)[C@H]1O [rutin]
maximum concentration [1]: 1659 ng/mL | time of maximum concentration [1]: 5 min | rutin in plasma after oral dosing [2]: no rutin was detectable | solubility at 1 h ([3]; Citric Acid–Fructose 1:1 (NADES mixture 7), organic solvent or mixture, thermodynamic from solid, solvent mixture 7 Citric Acid–Fructose 1:1): 205 ± 5.1 µg/mL (≈ 336 µM) | solubility at 1 h ([3]; Glucose–Citric Acid–Water 1:1:1 (NADES mixture 9), solvent mixture 9 Glucose–Citric Acid–Water 1:1:1): 175 ± 3.7 µg/mL (≈ 287 µM) | solubility at 1 h ([3]; Glucose–Fructose–Sorbitol 1:1:1 (NADES mixture 6), organic solvent or mixture, thermodynamic from solid, solvent mixture 6 Glucose–Fructose–Sorbitol 1:1:1): 90.8 ± 1.9 µg/mL (≈ 149 µM) | solubility at 1 h ([3]; Glucose–Fructose–Water 1:1:1 (NADES mixture 5), organic solvent or mixture, thermodynamic from solid, solvent mixture 5 Glucose–Fructose–Water 1:1:1): 81.9 ± 2.5 µg/mL (≈ 134 µM) | solubility at 1 h ([3]; Proline–Glutamic Acid 1:1 (NADES mixture 10), solvent mixture 10 Proline–Glutamic Acid 1:1): 2260 ± 63.4 µg/mL (≈ 3700 µM) | solubility at 1 h ([3]; Proline–Glutamic Acid 2:1 (NADES mixture 11), organic solvent or mixture, thermodynamic from solid, solvent mixture 11 Proline–Glutamic Acid 2:1): 2940 ± 118 µg/mL (≈ 4810 µM) | solubility at 1 h ([3]; Tartaric Acid–Fructose 1:1 (NADES mixture 8), organic solvent or mixture, thermodynamic from solid, solvent mixture 8 Tartaric Acid–Fructose 1:1): 504 ± 16.4 µg/mL (≈ 826 µM) | solubility at 1 h ([3]; ethanol, solvent Ethanol, mean ± SD of 3): 2370 ± 93.2 µg/mL (≈ 3880 µM) | solubility at 1 h ([3]; methanol, solvent Methanol, mean ± SD of 3): 2050 ± 89.7 µg/mL (≈ 3360 µM) | solubility at 1 h ([3]; natural deep eutectic solvent (NADES), organic solvent or mixture, thermodynamic from solid, solvent mixture 1 Urea–Glucose–Citric Acid 1:1:1): 379 ± 8.5 µg/mL (≈ 620 µM) | solubility at 1 h ([3]; natural deep eutectic solvent (NADES), organic solvent or mixture, thermodynamic from solid, solvent mixture 2 Urea–Glucose–Fructose 1:1:1): 961 ± 30.6 µg/mL (≈ 1570 µM) | solubility at 1 h ([3]; natural deep eutectic solvent (NADES), organic solvent or mixture, thermodynamic from solid, solvent mixture 3 Urea–Tartaric Acid 1:1): 680 ± 19 µg/mL (≈ 1110 µM) | solubility at 1 h ([3]; natural deep eutectic solvent (NADES), organic solvent or mixture, thermodynamic from solid, solvent mixture 4 Urea–Choline chloride 1:1): 1880 ± 48.1 µg/mL (≈ 3080 µM) | solubility at 1 h ([3]; natural deep eutectic solvent (NADES), organic solvent or mixture, thermodynamic from solid, solvent mixture 12 Proline–Oxalic Acid 1:1): 749 ± 22.5 µg/mL (≈ 1230 µM) | solubility at 1 h ([3]; natural deep eutectic solvent (NADES), organic solvent or mixture, thermodynamic from solid, solvent mixture 14 Ornitine–Tartaric Acid 1:1): 210 ± 5.7 µg/mL (≈ 343 µM) | solubility at 1 h ([3]; natural deep eutectic solvent (NADES), organic solvent or mixture, thermodynamic from solid, solvent mixture 15 Arginine–Tartaric Acid 1:1): 363 ± 11.2 µg/mL (≈ 594 µM) | solubility at 1 h ([3]; natural deep eutectic solvent (NADES), organic solvent or mixture, thermodynamic from solid, solvent mixture 16 Citrulline–Tartaric Acid 1.1): 370 ± 13.1 µg/mL (≈ 607 µM) | solubility at 1 h ([3]; natural deep eutectic solvent (NADES), organic solvent or mixture, thermodynamic from solid, solvent mixture 17 Arginine–Oxalic Acid 1:1): 414 ± 13.6 µg/mL (≈ 679 µM) | solubility at 1 h ([3]; natural deep eutectic solvent (NADES), organic solvent or mixture, thermodynamic from solid, solvent mixture 18 Proline–Malic Acid 1:1): 900 ± 31.1 µg/mL (≈ 1470 µM) | solubility at 1 h ([3]; natural deep eutectic solvent (NADES), organic solvent or mixture, thermodynamic from solid, solvent mixture 19 Arginin–Malic Acid 1:1): 457 ± 17.8 µg/mL (≈ 749 µM) | solubility at 1 h ([3]; natural deep eutectic solvent (NADES), organic solvent or mixture, thermodynamic from solid, solvent mixture 20 Ornitine–Malic Acid 1:1): 408 ± 14.8 µg/mL (≈ 668 µM) | solubility at 1 h ([3]; natural deep eutectic solvent (NADES), organic solvent or mixture, thermodynamic from solid, solvent mixture 21 Citrulline–Malic Acid 1:1): 454 ± 18.5 µg/mL (≈ 744 µM) | solubility at 1 h ([3]; natural deep eutectic solvent (NADES), organic solvent or mixture, thermodynamic from solid, solvent mixture 22 Proline–Citric Acid 1:1): 672 ± 26.2 µg/mL (≈ 1100 µM) | solubility at 1 h ([3]; natural deep eutectic solvent (NADES), organic solvent or mixture, thermodynamic from solid, solvent mixture 23 Arginine–Citric Acid 1:1): 414 ± 13.3 µg/mL (≈ 679 µM) | solubility at 1 h ([3]; natural deep eutectic solvent (NADES), organic solvent or mixture, thermodynamic from solid, solvent mixture 24 Ornitine–Citric Acid1:1): 425 ± 17.2 µg/mL (≈ 696 µM) | solubility at 1 h ([3]; natural deep eutectic solvent (NADES), organic solvent or mixture, thermodynamic from solid, solvent mixture 25 Citrulline–Citric Acid 1:1): 460 ± 14.4 µg/mL (≈ 753 µM) | solubility at 1 h ([3]; natural deep eutectic solvent (NADES), organic solvent or mixture, thermodynamic from solid, solvent mixture 26 Proline–Glucose1:1): 879 ± 31.3 µg/mL (≈ 1440 µM) | solubility at 1 h ([3]; natural deep eutectic solvent (NADES), organic solvent or mixture, thermodynamic from solid, solvent mixture 27 Proline–Fructose 1:1): 1560 ± 43.8 µg/mL (≈ 2560 µM) | solubility at 1 h ([3]; natural deep eutectic solvent (NADES), organic solvent or mixture, thermodynamic from solid, solvent mixture 28 Proline–Choline Chloride 1:2): 2640 ± 101 µg/mL (≈ 4330 µM) | solubility at 1 h ([3]; natural deep eutectic solvent (NADES), organic solvent or mixture, thermodynamic from solid, solvent mixture 29 Proline–Choline Chloride 1:3): 2800 ± 103 µg/mL (≈ 4580 µM) | solubility at 1 h ([3]; natural deep eutectic solvent (NADES), organic solvent or mixture, thermodynamic from solid, solvent mixture 30 Choline Chloride–Malic Acid 1:1): 702 ± 22.3 µg/mL (≈ 1150 µM) | solubility at 1 h ([3]; water, solvent Water, mean ± SD of 3): 120 ± 4.9 µg/mL (≈ 197 µM)
